Measured values: patent US20070184481A1, “Assay For Transcriptionally Active Methylated Promoters” (UNIVERSITY OF SOUTH FLORIDA, priority 2005, published 2007)

Tested on: HLA-DRA mRNA in RFX-negative cell lines
Settings: two RFX-negative suspension B-cell lines, 5 uM Azacytidine for 72 hours, RT-PCR 40 cycles, agarose gel detection
Method: Suspension B-cell lines were seeded at 10^5 cells per ml in 20 ml volume of media. […] Total RNA was prepared as described, and 5 ug of RNA were used in a standard reverse transcriptase, polymerase chain reaction (RT-PCR) for HLA-DRA mRNA and for γ-actin mRNA. PCR was performed for 40 cycles and the PCR products detected by 2.2% agarose gel electrophoresis.

## Nc1ncn([C@@H]2O[C@H](CO)[C@@H](O)[C@H]2O)c(=O)n1 [AzaC, Azacytidine]
  HLA-DRA mRNA production compared to untreated cells: increase in HLA-DRA mRNA production
